Source: patent US20260109707A1, “HETEROBIFUNCTIONAL COMPOUNDS AND METHODS OF TREATING DISEASE” (Halda Therapeutics OpCo. Inc., priority 2022, published 2026)
Like-named read-outs stand apart in the source and are kept apart here.

Experiments:
T47D cells = experiment: Cellular growth inhibition assay for T47D cells (CellTiter-Glo, 72 hours); type: cell-based, human; details: 72 hours treatment
Method in brief: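 Growth inhibition as GI50, fitted with four parameters to CellTiter-Glo luminescence after 72 h of compound exposure (0.5% DMSO). Cells were T47D, grown in insulin-supplemented (0.2 units/mL) DMEM with 10% FBS and treated one day post-seeding.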

VCaP cells = experiment: Cellular growth inhibition assay for VCaP cells (CellTiter-Glo, 72 hours); type: cell-based, human
Method in brief: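 Luminescent viability signal after 72 h of compound exposure gave GI50 values by four-parameter nonlinear regression. Compounds were added in 0.5% DMSO to cells plated 24 h earlier at 5000/well in DMEM containing 10% FBS.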

[1] = tested on: T-Rex 293 cell line SC3 cells having increased expression of androgen receptor protein due to exposure to doxycycline; experiment: Cellular growth inhibition assay, T-Rex 293 SC3 cells with doxycycline (CellTiter-Glo, 72 hours); type: cell-based; details: T-Rex 293 SC3 cells with increased androgen receptor expression due to doxycycline (10 ng/mL)
Method in brief: (§1)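 Growth inhibition is measured in an inducible AR-expressing T-Rex 293 clone, SC3, cultured with or without 10 ng/mL doxycycline in hormone-depleted medium. Test compounds are applied for 72 hours. GI50 values derive from CellTiter-Glo 2.0 signal fitted by four-parameter regression.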

[2] = tested on: T-Rex 293 cell line SC3 cells lacking increased expression of androgen receptor protein; experiment: Cellular growth inhibition assay, T-Rex 293 SC3 cells without doxycycline (CellTiter-Glo, 72 hours); type: cell-based; details: T-Rex 293 cell line SC3 cells not exposed to doxycycline (lacking increased androgen receptor expression)
Method in brief: as §1

| Compound | GI50 (T47D cells; Homo sapiens, T47D, 72 h) [nM] | GI50 (VCaP cells; Homo sapiens, VCaP, 72 h) [nM] | GI50 ([1]; 72 h) [nM] | GI50 ([2]; 72 h) [nM] | GI50 (T47D cells) [nM] | GI50 (VCaP cells) [nM] | GI50 [1] [nM] | GI50 [2] [nM] |
| --- | --- | --- | --- | --- | --- | --- | --- | --- |
| Cc1sc2c(c1C)C(c1ccc([C@H]3C[C@@H](C[C@@H]4CCCN(c5ccc(C(=O)N[C@H]6CC[C@H](Oc7ccc(C#N)c(Cl)c7)CC6)nn5)C4)C3)cc1)=N[C@@H](Cc1ncco1)c1nnc(C)n1-2 [I-355] | 1500 to 3000 | 1500 to 3000 | > 3000 | > 3000 |  |  |  |  |
| Cc1sc2c(c1C)C(c1ccc(CCN3[C@@H](C)CN(c4ccc(C(=O)N[C@H]5CC[C@H](Oc6ccc(C#N)c(Cl)c6)CC5)nn4)C[C@@H]3C)cc1)=N[C@@H](Cc1ncco1)c1nnc(C)n1-2 [I-379] | < 500 | < 500 | < 500 | < 500 |  |  |  |  |
| CCNC(=O)C[C@@H]1N=C(c2ccc(CN3CC4CN(c5ccc(C(=O)N[C@H]6CC[C@H](Oc7ccc(C#N)c(Cl)c7)CC6)nn5)CC4C3)cc2)c2c(sc(C)c2C)-n2c(C)nnc21 (stereo partly drawn) [I-32] | 500 to 1500 | < 500 | < 500 | 1500 to 3000 |  |  |  |  |
| Cc1sc2c(c1C)C(c1ccc(OCC3CC4(CCCN(c5ccc(C(=O)N[C@H]6CC[C@H](Oc7ccc(C#N)c(Cl)c7)CC6)nn5)C4)C3)nc1)=N[C@@H](C)c1nnc(C)n1-2 (stereo partly drawn) [I-425] |  |  |  |  | 500 to 1500 | < 500 | < 500 | 500 to 1500 |
| Cc1sc2c(c1C)C(c1ccc(C[C@H]3C[C@]4(CCCN(c5ccc(C(=O)N[C@H]6CC[C@H](Oc7ccc(C#N)c(Cl)c7)CC6)nn5)C4)C3)nc1)=N[C@H](Cc1ncco1)c1nnc(C)n1-2 [I-384] | > 3000 | > 3000 | > 3000 | > 3000 |  |  |  |  |
| Cc1sc2c(c1C)C(c1ccc(C3CN(C4CCN(c5ccc(C(=O)N[C@H]6CC[C@H](Oc7ccc(C#N)c(Cl)c7)CC6)nn5)C4)C3)cc1)=N[C@@H](Cc1ncco1)c1nnc(C)n1-2 (stereo partly drawn) [I-209] | < 500 | < 500 | < 500 | < 500 |  |  |  |  |
| Cc1sc2c(c1C)C(c1ccc(OC3CC4(CCN(c5ccc(C(=O)N[C@H]6CC[C@H](Oc7ccc(C#N)c(Cl)c7)CC6)cn5)CC4)C3)cc1)=N[C@@H](Cc1ncco1)c1nnc(C)n1-2 [I-88] | < 500 | < 500 | < 500 | < 500 |  |  |  |  |
| CCNC(=O)C[C@@H]1N=C(c2ccc(OC3CC(OC4CCN(c5ccc(C(=O)N[C@H]6CC[C@H](Oc7ccc(C#N)c(Cl)c7)CC6)nn5)CC4)C3)cc2)c2c(sc(C)c2C)-n2c(C)nnc21 (stereo partly drawn) [I-37] | < 500 | < 500 | < 500 | < 500 |  |  |  |  |
| Cc1sc2c(c1C)C(c1ccc(CC3CCC4(CC3)CCN(c3ccc(C(=O)N[C@H]5CC[C@H](Oc6ccc(C#N)c(Cl)c6)CC5)nn3)CC4)cc1)=N[C@@H](Cc1ncco1)c1nnc(C)n1-2 [I-365] |  |  |  |  | < 500 | < 500 | < 500 | 500 to 1500 |
| Cc1sc2c(c1C)C(c1ccc([C@H]3CCN(C(=O)[C@H]4CCCN(c5ccc(C(=O)N[C@H]6CC[C@H](Oc7ccc(C#N)c(Cl)c7)CC6)nn5)C4)C3)cc1)=N[C@@H](Cc1ncco1)c1nnc(C)n1-2 [I-345] | 500 to 1500 | < 500 | < 500 | > 3000 |  |  |  |  |
| Cc1sc2c(c1C)C(c1ccc([C@H]3C[C@@H](C4CCN(c5ccc(C(=O)N[C@H]6CC[C@H](Oc7ccc(C#N)c(Cl)c7)CC6)nn5)CC4)C3)cc1)=N[C@H](Cc1ncco1)c1nnc(C)n1-2 [I-372] | < 500 | < 500 | < 500 | < 500 |  |  |  |  |
| Cc1sc2c(c1C)C(c1ccc(O[C@H]3CCCN(c4ccc(C(=O)N[C@H]5CC[C@H](Oc6ccc(C#N)c(Cl)c6)CC5)nn4)C3)cc1)=N[C@@H](Cc1ncco1)c1nnc(C)n1-2 [I-217] | > 3000 | 1500 to 3000 | < 500 | < 500 |  |  |  |  |
| Cc1sc2c(c1C)C(c1ccc(CC(C)(C)N3CC4(CCCN(c5ccc(C(=O)N[C@H]6CC[C@H](Oc7ccc(C#N)c(Cl)c7)CC6)nn5)C4)C3)cc1)=N[C@@H](Cc1ncco1)c1nnc(C)n1-2 [I-393] | < 500 | < 500 | < 500 | 1500 to 3000 |  |  |  |  |
| Cc1sc2c(c1C)C(c1ccc(C(=O)N3CCC[C@@H](Cc4ccc(C(=O)N[C@H]5CC[C@H](Oc6ccc(C#N)c(Cl)c6)CC5)nn4)C3)cc1)=N[C@H](Cc1ncco1)c1nnc(C)n1-2 [I-275] | > 3000 | > 3000 | < 500 | > 3000 |  |  |  |  |
| CC1=NN=C2C1c1sc(C)c(C)c1C(c1ccc(C3CCC4(CC3)CCN(c3ccc(C(=O)N[C@H]5CC[C@H](Oc6ccc(C#N)c(Cl)c6)CC5)nn3)CC4)cc1)=N[C@@H]2Cc1ncco1 (stereo partly drawn) [I-410] | < 500 | < 500 | < 500 | < 500 |  |  |  |  |
